Test results reported in patent US20050163849A1 (priority 2003, published 2005).

Experiment: Intracolonic ligated model, lower G.I. absorption and bioavailability of iron-transport moiety complexes
Conditions: rat, intracolonic bolus into ligated colon, 10 mg iron/rat
Method: Absorption of the complexes is evaluated from blood samples taken from the animal as a function of time after intubation. A rise in the hematocrit level in the blood is indicative of absorption.
A segment of proximal colon is isolated and the colon is flushed of fecal materials. […] The colonic contents are flushed out and the colon is returned to the abdomen of the animal.
At the end of the 4 hour test period, the rats are euthanized with an overdose of pentobarbital. Colonic segments from each rat are excised and opened longitudinally along the anti-mesenteric border. Each segment is observed macroscopically for irritation and any abnormality noted. The excised colons are placed on graph paper and measured to approximate colonic surface area.

ferrous laurate [ferrous-laurate complex]
Increased absorption relative to ferrous sulfate (change in hematocrit level): at least two-fold
